These results are taken from patent publication US7846959B2, “Raf modulators and methods of use” (Exelixis, Inc., priority 2004, dated 2010).

A value given as a limit tells only on which side of the number the result lay.

The target in one assay is c-Raf (Homo sapiens, UniProt P04049). The experiment in a line: Luciferase-coupled chemiluminescence kinase assay (ATP consumption), c-Raf. Conditions: read-out: cRaf-1 (inhibition indicated as IC50). In kind it is biochemical. Put shortly:
(§1)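 Read-out: percent ATP consumed, quantified by luciferase/luciferin chemiluminescence after the kinase step. ATP consumption was held at 25-60%. Kinase ([…]) plus compound were preincubated 30 min at RT in Tris pH 7.5 buffer with MgCl2, Triton and DTT, then reacted with ATP for 3 h.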

A further assay deals with B-Raf (Homo sapiens, UniProt P15056). As to the kind of experiment: Luciferase-coupled chemiluminescence kinase assay (ATP consumption), B-Raf. Conditions: read-out: bRaf (inhibition indicated as IC50). In kind it is biochemical. Put shortly: as §1
Chain of B-Raf (P15056 whole entry): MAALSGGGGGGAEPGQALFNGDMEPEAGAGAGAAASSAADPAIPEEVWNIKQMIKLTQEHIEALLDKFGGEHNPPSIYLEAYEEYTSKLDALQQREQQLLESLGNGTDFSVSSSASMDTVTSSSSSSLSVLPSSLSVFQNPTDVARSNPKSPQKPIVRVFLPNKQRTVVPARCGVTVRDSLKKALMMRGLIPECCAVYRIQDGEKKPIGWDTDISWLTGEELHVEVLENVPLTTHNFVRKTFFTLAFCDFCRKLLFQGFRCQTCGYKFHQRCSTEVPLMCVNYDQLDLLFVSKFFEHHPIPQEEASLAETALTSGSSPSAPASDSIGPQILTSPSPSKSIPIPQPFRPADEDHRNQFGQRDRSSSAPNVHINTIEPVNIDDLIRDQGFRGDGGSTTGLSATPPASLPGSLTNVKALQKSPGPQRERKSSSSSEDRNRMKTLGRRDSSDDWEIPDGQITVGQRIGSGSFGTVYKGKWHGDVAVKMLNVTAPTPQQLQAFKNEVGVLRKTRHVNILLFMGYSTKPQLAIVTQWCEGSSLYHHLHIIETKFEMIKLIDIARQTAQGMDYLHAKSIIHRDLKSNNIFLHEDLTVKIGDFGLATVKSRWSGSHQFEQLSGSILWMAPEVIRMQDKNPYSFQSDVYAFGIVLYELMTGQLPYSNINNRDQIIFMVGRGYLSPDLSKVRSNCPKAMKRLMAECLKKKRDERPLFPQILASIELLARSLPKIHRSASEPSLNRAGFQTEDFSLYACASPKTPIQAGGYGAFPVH

Chain of c-Raf (P04049 whole entry): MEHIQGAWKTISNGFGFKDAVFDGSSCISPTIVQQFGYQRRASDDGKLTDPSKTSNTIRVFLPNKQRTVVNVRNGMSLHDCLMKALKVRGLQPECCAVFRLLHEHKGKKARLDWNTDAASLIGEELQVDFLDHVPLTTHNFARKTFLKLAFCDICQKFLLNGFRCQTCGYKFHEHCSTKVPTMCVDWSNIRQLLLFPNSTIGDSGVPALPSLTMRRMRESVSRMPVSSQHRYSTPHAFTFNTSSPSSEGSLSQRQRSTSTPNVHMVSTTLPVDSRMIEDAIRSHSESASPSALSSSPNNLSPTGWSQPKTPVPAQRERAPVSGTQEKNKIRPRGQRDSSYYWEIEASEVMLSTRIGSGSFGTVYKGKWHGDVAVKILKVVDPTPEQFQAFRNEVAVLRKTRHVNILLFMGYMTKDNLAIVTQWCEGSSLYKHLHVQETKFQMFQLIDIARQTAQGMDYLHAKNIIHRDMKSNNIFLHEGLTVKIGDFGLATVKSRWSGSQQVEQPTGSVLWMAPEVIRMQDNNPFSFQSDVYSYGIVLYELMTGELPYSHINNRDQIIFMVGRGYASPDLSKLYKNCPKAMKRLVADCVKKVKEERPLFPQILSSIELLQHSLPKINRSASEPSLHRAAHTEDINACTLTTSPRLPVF

Broadly, the IC50 is the concentration that gives 50% inhibition. For `CN1CCC(COC(=O)Nc2nc3cc(C4(O)c5ccccc5C(=O)N4Cc4ccccc4)ccc3[nH]2)CC1` (centres unmarked) [Entry 314, (1-methylpiperidin-4-yl)methyl {5-[1-hydroxy-3-oxo-2-(phenylmethyl)-2,3-dihydro-1H-isoindol-1-yl]-1H-benzimidazol-2-yl}carbamate], the half-maximal inhibitory concentration (IC50) on c-Raf and at B-Raf was less than 0.1 µM throughout.

Take `CC(C)(C)OC(=O)N1CCC(COC(=O)Nc2nc3cc(C4(O)c5ccccc5C(=O)N4Cc4ccccc4)ccc3[nH]2)CC1` (centres unmarked) [Entry 315, 1,1-dimethylethyl 4-({[({5-[1-hydroxy-3-oxo-2-(phenylmethyl)-2,3-dihydro-1H-isoindol-1-yl]-1H-benzimidazol-2-yl}amino)carbonyl]oxy}methyl)piperidine-1-carboxylate]: the IC50 on c-Raf and at B-Raf was 0.1 to 1 µM throughout.

For the compound `CN1CCC(COC(=O)Nc2nc3cc(C4(O)c5ccccc5C(=O)N4c4cccc(Cl)c4F)ccc3[nH]2)CC1` (centres unmarked) [Entry 316, (1-methylpiperidin-4-yl)methyl {5-[2-(3-chloro-2-fluorophenyl)-1-hydroxy-3-oxo-2,3-dihydro-1H-isoindol-1-yl]-1H-benzimidazol-2-yl}carbamate], the IC50 at c-Raf and at B-Raf was less than 0.1 µM throughout.

Take `CN1CCC(CCOC(=O)Nc2nc3cc(C4(O)c5ccccc5C(=O)N4c4cccc(Cl)c4F)ccc3[nH]2)CC1` (centres unmarked) [Entry 317, 2-(1-methylpiperidin-4-yl)ethyl {5-[2-(3-chloro-2-fluorophenyl)-1-hydroxy-3-oxo-2,3-dihydro-1H-isoindol-1-yl]-1H-benzimidazol-2-yl}carbamate]: the IC50 on c-Raf and on B-Raf was less than 0.1 µM each time.

Regarding `COC(=O)C(=O)Nc1nc2ccc(C3(O)c4ccccc4C(=O)N3c3cccc(Cl)c3F)cc2[nH]1` (centres unmarked) [Entry 318, methyl ({6-[2-(3-chloro-2-fluorophenyl)-1-hydroxy-3-oxo-2,3-dihydro-1H-isoindol-1-yl]-1H-benzimidazol-2-yl}amino)(oxo)acetate], the IC50 on c-Raf and at B-Raf was 1 to 10 µM in each case.

Take `O=C(CCCN1CCCCC1)Nc1nc2cc(C3(O)c4ccccc4C(=O)N3c3cccc(Oc4ccccc4)c3)ccc2[nH]1` (centres unmarked) [Entry 319, N-(5-{1-hydroxy-3-oxo-2-[3-(phenyloxy)phenyl]-2,3-dihydro-1H-isoindol-1-yl}-1H-benzimidazol-2-yl)-4-piperidin-1-ylbutanamide]: the IC50 on c-Raf and on B-Raf was less than 0.1 µM in each case.

For the compound `COC(=O)Nc1nc2ccc(C3(C)c4ccccc4C(=O)N3c3cccc(Br)c3)cc2[nH]1` (centres unmarked) [Entry 320, methyl {6-[2-(3-bromophenyl)-1-methyl-3-oxo-2,3-dihydro-1H-isoindol-1-yl]-1H-benzimidazol-2-yl}carbamate], the IC50 on c-Raf and at B-Raf was less than 0.1 µM throughout.

`CCN(CC)CC#CCOC(=O)Nc1nc2ccc(C3(O)c4ccccc4C(=O)N3c3cccc(Cl)c3F)cc2[nH]1` (centres unmarked) [Entry 321, 4-(diethylamino)but-2-yn-1-yl {6-[2-(3-chloro-2-fluorophenyl)-1-hydroxy-3-oxo-2,3-dihydro-1H-isoindol-1-yl]-1H-benzimidazol-2-yl}carbamate]: the concentration for half-maximal inhibition (IC50) on c-Raf and at B-Raf was less than 0.1 µM in each case.

For the compound `COC(=O)Nc1nc2cc(C3(O)c4ccccc4C(=O)N3c3c(F)ccc(Cl)c3F)ccc2[nH]1` (centres unmarked) [Entry 322, methyl {5-[2-(3-chloro-2,6-difluorophenyl)-1-hydroxy-3-oxo-2,3-dihydro-1H-isoindol-1-yl]-1H-benzimidazol-2-yl}carbamate], the IC50 at c-Raf and on B-Raf was less than 0.1 µM each time.

For `O=C(Nc1nc2ccc(C3(O)c4ccccc4C(=O)N3c3cccc(Cl)c3F)cc2[nH]1)OCCN1CCCC1=O` (centres unmarked) [Entry 323, 2-(2-oxopyrrolidin-1-yl)ethyl {6-[2-(3-chloro-2-fluorophenyl)-1-hydroxy-3-oxo-2,3-dihydro-1H-isoindol-1-yl]-1H-benzimidazol-2-yl}carbamate], the IC50 on c-Raf and on B-Raf was less than 0.1 µM in each case.

For the compound `O=C(Nc1nc2ccc(C3(O)c4ccccc4C(=O)N3c3cccc(Cl)c3F)cc2[nH]1)OCCN1C(=O)CCC1=O` (centres unmarked) [Entry 324, 2-(2,5-dioxopyrrolidin-1-yl)ethyl {6-[2-(3-chloro-2-fluorophenyl)-1-hydroxy-3-oxo-2,3-dihydro-1H-isoindol-1-yl]-1H-benzimidazol-2-yl}carbamate], the IC50 on c-Raf and on B-Raf was less than 0.1 µM in each case.

For `O=C(Nc1nc2cc(C3(O)c4ccccc4C(=O)N3c3cccc(Cl)c3F)ccc2[nH]1)OC1CC(F)(F)C1(F)F` (centres unmarked) [Entry 325, 2,2,3,3-tetrafluorocyclobutyl {5-[2-(3-chloro-2-fluorophenyl)-1-hydroxy-3-oxo-2,3-dihydro-1H-isoindol-1-yl]-1H-benzimidazol-2-yl}carbamate], the IC50 at c-Raf and on B-Raf was less than 0.1 µM each time.

As to `CC(=O)N1CCC(C(=O)Nc2nc3cc(C4(O)c5ccccc5C(=O)N4c4cccc(Cl)c4F)ccc3[nH]2)CC1` (centres unmarked) [Entry 326, 1-acetyl-N-{5-[2-(3-chloro-2-fluorophenyl)-1-hydroxy-3-oxo-2,3-dihydro-1H-isoindol-1-yl]-1H-benzimidazol-2-yl}piperidine-4-carboxamide], the IC50 at c-Raf and at B-Raf was less than 0.1 µM throughout.

For the compound `O=C(Nc1nc2cc(C3(O)c4ccccc4C(=O)N3c3cccc(Cl)c3F)ccc2[nH]1)C1CCC1` (centres unmarked) [Entry 327, N-{5-[2-(3-chloro-2-fluorophenyl)-1-hydroxy-3-oxo-2,3-dihydro-1H-isoindol-1-yl]-1H-benzimidazol-2-yl}cyclobutanecarboxamide], the half-maximal inhibitory concentration (IC50) on c-Raf and at B-Raf was less than 0.1 µM each time.

On to `CCN(c1ccccc1)c1cccc(N2C(=O)c3ccccc3C2(O)c2ccc3[nH]c(NC(=O)OC)nc3c2)c1` (centres unmarked) [Entry 328, methyl [5-(2-{3-[ethyl(phenyl)amino]phenyl}-1-hydroxy-3-oxo-2,3-dihydro-1H-isoindol-1-yl)-1H-benzimidazol-2-yl]carbamate], for which the IC50 at c-Raf and at B-Raf was 0.1 to 1 µM in each case.

Take `O=C(Nc1nc2ccc(C3(O)c4ccccc4C(=O)N3c3cccc(Cl)c3F)cc2[nH]1)C1CC1(F)F` (centres unmarked) [Entry 329, N-{6-[2-(3-chloro-2-fluorophenyl)-1-hydroxy-3-oxo-2,3-dihydro-1H-isoindol-1-yl]-1H-benzimidazol-2-yl}-2,2-difluorocyclopropanecarboxamide]: the IC50 at c-Raf and on B-Raf was less than 0.1 µM in each case.

Consider `O=C(Nc1nc2ccc(C3(O)c4ccccc4C(=O)N3c3cccc(Cl)c3F)cc2[nH]1)OC1CCC1` (centres unmarked) [Entry 330, cyclobutyl {6-[2-(3-chloro-2-fluorophenyl)-1-hydroxy-3-oxo-2,3-dihydro-1H-isoindol-1-yl]-1H-benzimidazol-2-yl}carbamate], for which the IC50 on c-Raf and on B-Raf was less than 0.1 µM each time.

On to `O=C(Nc1nc2ccc(C3(O)c4ccccc4C(=O)N3c3cccc(Cl)c3F)cc2[nH]1)OCC(F)F` (centres unmarked) [Entry 331, 2,2-difluoroethyl {6-[2-(3-chloro-2-fluorophenyl)-1-hydroxy-3-oxo-2,3-dihydro-1H-isoindol-1-yl]-1H-benzimidazol-2-yl}carbamate], for which the IC50 at c-Raf and at B-Raf was less than 0.1 µM throughout.

On to `O=C1c2ccccc2C(O)(c2ccc3[nH]c(Nc4ccccn4)nc3c2)N1c1cccc(Cl)c1F` (centres unmarked) [Entry 332, 2-(3-chloro-2-fluorophenyl)-3-hydroxy-3-[2-(pyridin-2-ylamino)-1H-benzimidazol-5-yl]-2,3-dihydro-1H-isoindol-1-one], for which the IC50 at c-Raf and on B-Raf was less than 0.1 µM in each case.

For the compound `CC(C)OC(=O)Nc1nc2ccc(C3(O)c4ccccc4C(=O)N3c3cccc(Cl)c3F)cc2[nH]1` (centres unmarked) [Entry 333, 1-methylethyl {6-[2-(3-chloro-2-fluorophenyl)-1-hydroxy-3-oxo-2,3-dihydro-1H-isoindol-1-yl]-1H-benzimidazol-2-yl}carbamate], the IC50 at c-Raf and on B-Raf was less than 0.1 µM throughout.

On to `O=C(Nc1nc2ccc(C3(O)c4ccccc4C(=O)N3c3cccc(Cl)c3F)cc2[nH]1)OCC1CC1` (centres unmarked) [Entry 334, cyclopropylmethyl {6-[2-(3-chloro-2-fluorophenyl)-1-hydroxy-3-oxo-2,3-dihydro-1H-isoindol-1-yl]-1H-benzimidazole-2-yl}carbamate], for which the IC50 on c-Raf and at B-Raf was less than 0.1 µM each time.

As for `O=C(Nc1nc2cc(C3(O)c4ccccc4C(=O)N3c3cccc(Cl)c3F)ccc2[nH]1)C1CC1` (centres unmarked) [Entry 335, N-{5-[2-(3-chloro-2-fluorophenyl)-1-hydroxy-3-oxo-2,3-dihydro-1H-isoindol-1-yl]-1H-benzimidazol-2-yl}cyclopropanecarboxamide], the IC50 at c-Raf and on B-Raf was less than 0.1 µM in each case.

Turning to `COCCOC(=O)Nc1nc2cc(C3(O)c4ccccc4C(=O)N3c3cccc(Cl)c3F)ccc2[nH]1` (centres unmarked) [Entry 336, 2-(methyloxy)ethyl {5-[2-(3-chloro-2-fluorophenyl)-1-hydroxy-3-oxo-2,3-dihydro-1H-isoindol-1-yl]-1H-benzimidazol-2-yl}carbamate], the IC50 on c-Raf and on B-Raf was less than 0.1 µM in each case.

`O=C(Nc1nc2ccc(C3(O)c4ccccc4C(=O)N3c3cccc(Cl)c3F)cc2[nH]1)OCC1CCCO1` (centres unmarked) [Entry 337, tetrahydrofuran-2-ylmethyl {6-[2-(3-chloro-2-fluorophenyl)-1-hydroxy-3-oxo-2,3-dihydro-1H-isoindol-1-yl]-1H-benzimidazol-2-yl}carbamate]: the IC50 at c-Raf and on B-Raf was less than 0.1 µM in each case.

For `O=C(Cc1cccs1)Nc1nc2cc(C3(O)c4ccccc4C(=O)N3c3cccc(Cl)c3F)ccc2[nH]1` (centres unmarked) [Entry 338, N-{5-[2-(3-chloro-2-fluorophenyl)-1-hydroxy-3-oxo-2,3-dihydro-1H-isoindol-1-yl]-1H-benzimidazol-2-yl}-2-(2-thienyl)acetamide], the IC50 at c-Raf and at B-Raf was less than 0.1 µM throughout.
